Laboratory results: patent US10105357B2, “Indication of antibiotic drugs for preparation of cancer inhibition pharmaceutical composition” (LAUNX BIOMEDICAL CO., LTD., priority 2014, dated 2018)
Counter-ions that a name gives are not always drawn. Like-named read-outs stand apart in the source and are kept apart here.

Assays:
Type in all cases: cell-based, human
cancer cell lines = assay: Cell viability analysis (WST-1) on cancer cell lines; details: drug 10 μM, 72 hours, WST-1; Table 3
[1] = system: HI650 (Lung Adenocarcinoma); assay: Cell viability analysis, lung cancer HI650; details: Homo sapiens
[2] = system: A549 (Lung Adenocarcinoma); assay: Cell viability analysis, lung cancer A549; details: Homo sapiens, A549
[3] = system: AGS (Gastric Adenocarcinoma); assay: Cell viability analysis, gastric cancer AGS; details: Homo sapiens
[4] = system: MKN-45 (Gastric Adenocarcinoma); assay: Cell viability analysis, gastric cancer MKN-45; details: Homo sapiens, MKN-45
[5] = system: HepG2 (Hepatocellular Carcinoma); assay: Cell viability analysis, hepatic cancer HepG2; details: Homo sapiens, HepG2
[6] = system: Hep3B (hepatocellular carcinoma); assay: Cell viability analysis, hepatic cancer Hep3B; details: Homo sapiens, Hep3B, 72 h, read-out: The results of antibiotic drug inhibiting cancer cell lines (cell viability analysis), Hep3B
[7] = system: LoVo (Colorectal Adenocarcinoma); assay: Cell viability analysis, colon cancer LoVo; details: Homo sapiens, LoVo
[8] = system: A375 (Amelanotic Melanoma); assay: Cell viability analysis, skin cancer A375; details: Homo sapiens
[9] = system: BCC (basal cell carcinoma); assay: Cell viability analysis, skin cancer BCC; details: Homo sapiens, 72 h, read-out: The results of antibiotic drug inhibiting cancer cell lines (cell viability analysis), BCC
[10] = system: HeLa (Cervix Adenocarcinoma); assay: Cell viability analysis, cervical cancer HeLa; details: Homo sapiens, HeLa
[11] = system: C-33A (Cervical carcinoma); assay: Cell viability analysis, cervical cancer C-33A; details: Homo sapiens, C-33-A, 72 h, read-out: The results of antibiotic drug inhibiting cancer cell lines (cell viability analysis), C-33A
[12] = system: PC3 (p53−) (Prostate Adenocarcinoma); assay: Cell viability analysis, prostate cancer PC3; details: Homo sapiens
[13] = system: TSGH-8301 (Urinary Bladder Carcinoma); assay: Cell viability analysis, bladder cancer TSGH-8301; details: Homo sapiens
T24 = assay: Cell viability analysis, bladder cancer T24; details: Homo sapiens, T-24, 72 h, read-out: The results of antibiotic drug inhibiting cancer cell lines (cell viability analysis), T24
[14] = system: MCF7 (Mammary Gland, Adenocarcinoma); assay: Cell viability analysis, breast cancer MCF7; details: Homo sapiens
[15] = system: MDA-MB-231 (Mammary Gland, Adenocarcinoma); assay: Cell viability analysis, breast cancer MDA-MB-231; details: Homo sapiens, MDA-MB-231, 72 h, read-out: The results of antibiotic drug inhibiting cancer cell lines (cell viability analysis), MDA-MB231
BxPC-3 = assay: Cell viability analysis, pancreatic cancer BxPC-3; details: Homo sapiens, BXPC-3, 72 h, read-out: The results of antibiotic drug inhibiting cancer cell lines (cell viability analysis), BxPC-3
AsPC-1 = assay: Cell viability analysis, pancreatic cancer AsPC-1; details: Homo sapiens, ASPC1, 72 h, read-out: The results of antibiotic drug inhibiting cancer cell lines (cell viability analysis), AsPC-1
NIH: OVCAR-3 = assay: Cell viability analysis, ovarian cancer NIH: OVCAR-3; details: Homo sapiens, OVCAR-3, 72 h, read-out: The results of antibiotic drug inhibiting cancer cell lines (cell viability analysis), NIH-OVCAR-3
TOV-21G = assay: Cell viability analysis, ovarian cancer TOV-21G; details: Homo sapiens, TOV21G, 72 h, read-out: The results of antibiotic drug inhibiting cancer cell lines (cell viability analysis), TOV-21G
[16] = system: SAS (Tongue squamous cell carcinoma); assay: Cell viability analysis, tongue cancer SAS; details: Homo sapiens, 72 h, read-out: The results of antibiotic drug inhibiting cancer cell lines (cell viability analysis), SAS
U-2OS = assay: Cell viability analysis, osteosarcoma U-2OS; details: Homo sapiens, U2OS, 72 h, read-out: The results of antibiotic drug inhibiting cancer cell lines (cell viability analysis), U2OS
[17] = system: 786-O (Renal adenocarcinoma); assay: Cell viability analysis, renal cancer 786-O; details: Homo sapiens, 786-0, 72 h, read-out: The results of antibiotic drug inhibiting cancer cell lines (cell viability analysis), 786-O
[18] = system: HL-60 (Acute Promyelocytic Leukemia); assay: Cell viability analysis, leukemia HL-60; details: Homo sapiens, HL-60; drug 10 μM, 72 hours, WST-1, OD450 nm; read-out: cell viability (survival rate), HL-60

SMILES: Cc1cc(C(C)(C)C)cc(C)c1CC1=NCCN1 [Xylometazoline HCl]
- inhibition effect on different cancer cell lines (cancer cell lines): significant inhibition effect
- viability at 10 µM ([1]; NCI-H1650, 72 h, H1650, repeated experiment, read-out: The results of antibiotic drug inhibiting cancer cell lines (cell viability analysis), H1650): 95.3%
- viability at 10 µM ([1]; NCI-H1650, drug 10 μM, 72 hours, WST-1, OD450 nm, read-out: cell viability (survival rate), H1650): 33.4%
- viability at 10 µM ([2]; 72 h, repeated experiment, read-out: The results of antibiotic drug inhibiting cancer cell lines (cell viability analysis), A549): 83%
- viability at 10 µM ([2]; drug 10 μM, 72 hours, WST-1, OD450 nm, read-out: cell viability (survival rate), A549): 74.7%
- viability at 10 µM ([3]; 72 h, AGS, repeated experiment, read-out: The results of antibiotic drug inhibiting cancer cell lines (cell viability analysis), AGS): 125%
- viability at 10 µM ([3]; drug 10 μM, 72 hours, WST-1, OD450 nm, read-out: cell viability (survival rate), AGS): 52.2%
- viability at 10 µM ([4]; 72 h, repeated experiment, read-out: The results of antibiotic drug inhibiting cancer cell lines (cell viability analysis), MKN-45): 121%
- viability at 10 µM ([4]; drug 10 μM, 72 hours, WST-1, OD450 nm, read-out: cell viability (survival rate), MKN-45): 65.8%
- viability at 10 µM ([5]; 72 h, repeated experiment, read-out: The results of antibiotic drug inhibiting cancer cell lines (cell viability analysis), HepG2): 106%
- viability at 10 µM ([5]; drug 10 μM, 72 hours, WST-1, OD450 nm, read-out: cell viability (survival rate), HepG2): 83%
- viability at 10 µM [6]: 114%
- viability at 10 µM ([7]; 72 h, repeated experiment, read-out: The results of antibiotic drug inhibiting cancer cell lines (cell viability analysis), LoVo): 88.7%
- viability at 10 µM ([7]; drug 10 μM, 72 hours, WST-1, OD450 nm, read-out: cell viability (survival rate), LoVo): 47.1%
- viability at 10 µM ([8]; A-375, 72 h, A375, repeated experiment, read-out: The results of antibiotic drug inhibiting cancer cell lines (cell viability analysis), A375): 102%
- viability at 10 µM ([8]; A-375, drug 10 μM, 72 hours, WST-1, OD450 nm, read-out: cell viability (survival rate), A375): 65.1%
- viability at 10 µM [9]: 116%
- viability at 10 µM ([10]; 72 h, repeated experiment, read-out: The results of antibiotic drug inhibiting cancer cell lines (cell viability analysis), HeLa): 117%
- viability at 10 µM ([10]; drug 10 μM, 72 hours, WST-1, OD450 nm, read-out: cell viability (survival rate), HeLa): 107%
- viability at 10 µM [11]: 104%
- viability at 10 µM ([12]; 72 h, PC-3, repeated experiment, read-out: The results of antibiotic drug inhibiting cancer cell lines (cell viability analysis), PC-3): 116%
- viability at 10 µM ([12]; drug 10 μM, 72 hours, WST-1, OD450 nm, read-out: cell viability (survival rate), PC3): 54.8%
- viability at 10 µM ([13]; 72 h, TSGH-8301, repeated experiment, read-out: The results of antibiotic drug inhibiting cancer cell lines (cell viability analysis), TSGH-8301): 122%
- viability at 10 µM ([13]; drug 10 μM, 72 hours, WST-1, OD450 nm, read-out: cell viability (survival rate), TSGH): 42.6%
- viability at 10 µM (T24): 92.5%
- viability at 10 µM ([14]; MCF7, 72 h, MCF-7, repeated experiment, read-out: The results of antibiotic drug inhibiting cancer cell lines (cell viability analysis), MCF-7): 90.1%
- viability at 10 µM ([14]; MCF7, drug 10 μM, 72 hours, WST-1, OD450 nm, read-out: cell viability (survival rate), MCF7): 94.4%
- viability at 10 µM [15]: 96.3%
- viability at 10 µM (BxPC-3): 72.9%
- viability at 10 µM (AsPC-1): 82.8%
- viability at 10 µM (NIH: OVCAR-3): 102%
- viability at 10 µM (TOV-21G): 92.3%
- viability at 10 µM [16]: 76.4%
- viability at 10 µM (U-2OS): 60.2%
- viability at 10 µM [17]: 100%
- viability at 10 µM [18]: 84.9%
